Reference: patent US20230102554A1 (GB002, INC., priority 2019, published 2023)

Key:
[1] = target: T1, Human PDGFRβ, cytoplasmic domain (GST-PDGFRβ) (Homo sapiens, UniProt P09619); assay: Human PDGFRβ biochemical inhibition assay (off-chip Mobility Shift Assay)
T1 construct: made in house
In short: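 GST-tagged cytoplasmic domain (aa 557-1106) from baculovirus was incubated 1 h at room temperature with compound, CSKtide, ATP at Km and Mg²⁺ in HEPES buffer, pH 7.5. Phosphorylated and unphosphorylated peptide were separated by off-chip mobility shift, and the product ratio P/(P+S) gave percent inhibition.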

[2] = target: T2, Human PDGFRα, cytoplasmic domain (GST-PDGFRα) (Homo sapiens, UniProt P16234); assay: Human PDGFRα biochemical inhibition assay (off-chip Mobility Shift Assay)
T2 construct: made in house
T2 sequence (P16234 550-1089 T674I): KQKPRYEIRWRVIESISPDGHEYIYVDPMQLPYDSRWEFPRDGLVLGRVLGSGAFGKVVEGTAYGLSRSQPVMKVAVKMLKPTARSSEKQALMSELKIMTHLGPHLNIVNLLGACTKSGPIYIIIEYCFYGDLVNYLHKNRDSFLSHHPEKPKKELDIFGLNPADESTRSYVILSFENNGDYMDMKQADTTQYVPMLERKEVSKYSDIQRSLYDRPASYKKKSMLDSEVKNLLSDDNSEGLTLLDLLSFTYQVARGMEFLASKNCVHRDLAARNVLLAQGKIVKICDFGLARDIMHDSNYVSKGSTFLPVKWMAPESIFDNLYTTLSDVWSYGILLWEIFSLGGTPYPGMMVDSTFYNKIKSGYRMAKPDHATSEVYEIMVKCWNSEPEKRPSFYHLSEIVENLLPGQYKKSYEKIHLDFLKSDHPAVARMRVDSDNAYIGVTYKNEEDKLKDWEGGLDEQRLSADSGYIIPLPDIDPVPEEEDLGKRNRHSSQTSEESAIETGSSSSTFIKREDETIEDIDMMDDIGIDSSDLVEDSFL

T1 sequence (P09619 with tags, fused parts or gaps): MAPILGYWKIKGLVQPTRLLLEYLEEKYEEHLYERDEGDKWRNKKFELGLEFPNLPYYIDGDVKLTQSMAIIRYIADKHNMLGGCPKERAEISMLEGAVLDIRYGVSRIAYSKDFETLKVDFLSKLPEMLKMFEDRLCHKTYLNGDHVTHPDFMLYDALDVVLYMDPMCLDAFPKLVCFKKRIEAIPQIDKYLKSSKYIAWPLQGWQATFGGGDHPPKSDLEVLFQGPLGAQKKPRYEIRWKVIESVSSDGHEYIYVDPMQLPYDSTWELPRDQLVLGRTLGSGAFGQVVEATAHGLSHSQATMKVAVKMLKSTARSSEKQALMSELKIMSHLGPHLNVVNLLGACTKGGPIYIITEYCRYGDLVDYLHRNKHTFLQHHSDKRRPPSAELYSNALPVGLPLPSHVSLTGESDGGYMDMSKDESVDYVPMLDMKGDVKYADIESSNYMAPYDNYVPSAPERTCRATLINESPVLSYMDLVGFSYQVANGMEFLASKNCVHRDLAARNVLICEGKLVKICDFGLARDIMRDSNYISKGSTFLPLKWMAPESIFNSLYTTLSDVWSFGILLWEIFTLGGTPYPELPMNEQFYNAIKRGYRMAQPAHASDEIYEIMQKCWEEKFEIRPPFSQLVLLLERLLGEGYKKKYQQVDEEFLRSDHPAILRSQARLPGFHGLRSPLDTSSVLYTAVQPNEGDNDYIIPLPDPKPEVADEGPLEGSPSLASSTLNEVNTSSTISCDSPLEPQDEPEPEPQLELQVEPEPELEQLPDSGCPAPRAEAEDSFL

CCn1cc2ncc(N[C@@H](C)c3cccc(NC(=O)c4ccc(F)c(C)c4)c3)nc2n1 [Compound 330, (S)-N-(3-(1-((2-ethyl-2H-pyrazolo[3,4-b]pyrazin-6-yl)amino)ethyl)phenyl)-4-fluoro-3-methylbenzamide]
IC50 [1]: < 300 nM
IC50 [2]: < 300 nM

Cc1cncc(C(=O)Nc2cccc([C@H](C)Nc3cnc4cnn(CC(F)F)c4n3)c2)c1 [Compound 183, (S)-N-(3-(1-((1-(2,2-difluoroethyl)-1H-pyrazolo[3,4-b]pyrazin-6-yl)amino)ethyl)phenyl)-5-methylnicotinamide]
IC50 [1]: 300 to 1000 nM
IC50 [2]: < 300 nM

CCOc1ncc(C(=O)Nc2cccc([C@H](C)Nc3cnc4cnn(C)c4n3)c2)cc1C [Compound 129, (S)-6-ethoxy-5-methyl-N-(3-(1-((1-methyl-1H-pyrazolo[3,4-b]pyrazin-6-yl)amino)ethyl)phenyl)nicotinamide]
IC50 [1]: < 300 nM
IC50 [2]: < 300 nM

CCn1cc2ncc(N[C@@H](C)c3cc(NC(=O)Cc4ccc(C(C)(C)F)cn4)ccc3C)nc2n1 [Compound 690, (S)-N-(3-(1-((2-ethyl-2H-pyrazolo[3,4-b]pyrazin-6-yl)amino)ethyl)-4-methylphenyl)-2-(5-(2-fluoropropan-2-yl)pyridin-2-yl)acetamide]
IC50 [1]: ≥ 1000 nM
IC50 [2]: 300 to 1000 nM

CCn1nc(C(C)C)cc1C(=O)Nc1cccc([C@H](C)Nc2cnc3cnn(C)c3n2)c1 [Compound 167, (S)-1-ethyl-3-isopropyl-N-(3-(1-((1-methyl-1H-pyrazolo[3,4-b]pyrazin-6-yl)amino)ethyl)phenyl)-1H-pyrazole-5-carboxamide]
IC50 [1]: < 300 nM
IC50 [2]: < 300 nM

COc1ccc(Cn2ccc3ncc(N[C@@H](C)c4cccc(NC(=O)c5cncc(C)c5)c4)nc32)cc1OC [Compound 88, (S)-N-(3-(1-((5-(3,4-dimethoxybenzyl)-5H-pyrrolo [2,3-b]pyrazin-3-yl)amino)ethyl)phenyl)-5-methylnicotinamide]
IC50 [1]: ≥ 1000 nM
IC50 [2]: < 300 nM

Cc1cncc(C(=O)Nc2cccc([C@H](C)Nc3cnc4[nH]cc(-c5cccnc5)c4n3)c2)c1 [Compound 591, (S)-5-methyl-N-(3-(1-((7-(pyridin-3-yl)-5H-pyrrolo[2,3-b]pyrazin-2-yl)amino)ethyl)phenyl)nicotinamide]
IC50 [1]: < 300 nM
IC50 [2]: < 300 nM

CSc1cc(C(=O)Nc2cccc([C@H](C)Nc3cnc4cnn(C)c4n3)c2)ccc1CN1CCN(C)CC1 [Compound 238, (S)-N-(3-(1-((1-methyl-1H-pyrazolo[3,4-b]pyrazin-6-yl)amino)ethyl)phenyl)-4-((4-methylpiperazin-1-yl)methyl)-3-(methylthio)benzamide]
IC50 [1]: < 300 nM
IC50 [2]: < 300 nM

Cc1cncc(C(=O)Nc2cccc([C@H](C)Nc3cnc4ccn(C)c4n3)c2)c1 [Compound 1, (S)-5-methyl-N-(3-(1-((5-methyl-5H-pyrrolo[2,3-b]pyrazin-3-yl)amino)ethyl)phenyl)nicotinamide]
IC50 [1]: < 300 nM
IC50 [2]: < 300 nM

CCn1cc2ncc(N[C@@H](C)c3cccc(NC(=O)c4cnc(Cl)c(C)c4)c3)nc2n1 [Compound 383, (S)-6-chloro-N-(3-(1-((2-ethyl-2H-pyrazolo[3,4-b]pyrazin-6-yl)amino)ethyl)phenyl)-5-methylnicotinamide]
IC50 [1]: < 300 nM
IC50 [2]: < 300 nM

C[C@H](Nc1cnc2[nH]cc(-c3cnn(C)c3)c2n1)c1cccc(NC(=O)[C@@H]2C[C@H]2C(F)(F)F)c1 [Compound 589, (1R,2R)-N-(3-((S)-1-((7-(1-methyl-1H-pyrazol-4-yl)-5H-pyrrolo[2,3-b]pyrazin-2-yl)amino)ethyl)phenyl)-2-(trifluoromethyl)cyclopropane-1-carboxamide]
IC50 [1]: 300 to 1000 nM
IC50 [2]: ≥ 1000 nM

CCn1cc2ncc(N[C@@H](C)c3cccc(NC(=O)c4ccc(C5CC5)s4)c3)nc2n1 [Compound 291, (S)-5-cyclopropyl-N-(3-(1-((2-ethyl-2H-pyrazolo[3,4-b]pyrazin-6-yl)amino)ethyl)phenyl)thiophene-2-carboxamide]
IC50 [1]: < 300 nM
IC50 [2]: < 300 nM

CCn1cc(C(=O)Nc2cccc([C@H](C)Nc3cnc4cn(CC)nc4n3)c2)cn1 [Compound 297, (S)-1-ethyl-N-(3-(1-((2-ethyl-2H-pyrazolo[3,4-b]pyrazin-6-yl)amino)ethyl)phenyl)-1H-pyrazole-4-carboxamide]
IC50 [1]: 300 to 1000 nM
IC50 [2]: 300 to 1000 nM

CCn1cc2ncc(N[C@@H](C)c3cccc(NC(=O)Nc4ccc(OC(F)(F)F)nc4)c3)nc2n1 [Compound 407, (S)-1-(3-(1-((2-ethyl-2H-pyrazolo[3,4-b]pyrazin-6-yl)amino)ethyl)phenyl)-3-(6-(trifluoromethoxy)pyridin-3-yl) urea]
IC50 [1]: < 300 nM
IC50 [2]: < 300 nM

Cc1cncc(C(=O)Nc2cccc([C@H](C)Nc3cnn4cc(-c5cnn(C)c5)ccc34)c2)c1 [Compound 746, (S)-5-methyl-N-(3-(1-((6-(1-methyl-1H-pyrazol-4-yl)pyrazolo[1,5-a]pyridin-3-yl)amino)ethyl)phenyl) nicotinamide]
IC50 [1]: < 300 nM
IC50 [2]: < 300 nM

CCn1cc2ncc(N[C@@H](C)c3cc(NC(=O)c4ccc(Cl)c(C)c4)ccc3C)nc2n1 [Compound 508, (S)-4-chloro-N-(3-(1-((2-ethyl-2H-pyrazolo[3,4-b]pyrazin-6-yl)amino)ethyl)-4-methylphenyl)-3-methylbenzamide]
IC50 [1]: < 300 nM
IC50 [2]: < 300 nM

CC(C)n1cc(C(=O)Nc2cccc([C@H](C)Nc3cnc4cnn(C)c4n3)c2)cn1 [Compound 147, (S)-1-isopropyl-N-(3-(1-((1-methyl-1H-pyrazolo[3,4-b]pyrazin-6-yl)amino)ethyl)phenyl)-1H-pyrazole-4-carboxamide]
IC50 [1]: < 300 nM
IC50 [2]: < 300 nM

CCn1cc2ncc(N[C@@H](C)c3cc(NC(=O)Cc4cnc(C5CC5)c(F)c4)ccc3F)nc2n1 [Compound 691, (S)-2-(6-cyclopropyl-5-fluoropyridin-3-yl)-N-(3-(1-((2-ethyl-2H-pyrazolo[3,4-b]pyrazin-6-yl)amino)ethyl)-4-fluorophenyl)acetamide]
IC50 [1]: ≥ 1000 nM
IC50 [2]: < 300 nM

COc1ccc(C(=O)Nc2cccc([C@H](C)Nc3cnc4cnn(C)c4n3)c2)cn1 [Compound 122, (S)-6-methoxy-N-(3-(1-((1-methyl-1H-pyrazolo[3,4-b]pyrazin-6-yl)amino)ethyl)phenyl)nicotinamide]
IC50 [1]: 300 to 1000 nM
IC50 [2]: < 300 nM

CCn1cc2ncc(N[C@@H](C)c3cccc(NC(=O)Cc4ccc(OC)cn4)c3)nc2n1 [Compound 697, (S)-N-(3-(1-((2-ethyl-2H-pyrazolo[3,4-b]pyrazin-6-yl)amino)ethyl)phenyl)-2-(5-methoxypyridin-2-yl)acetamide]
IC50 [1]: ≥ 1000 nM
IC50 [2]: 300 to 1000 nM

Cc1cncc(C(=O)Nc2cccc([C@H](C)Nc3cnc4cc(C)sc4n3)c2)c1 [Compound 19, (S)-5-methyl-N-(3-(1-((6-methylthieno[2,3-b]pyrazin-3-yl)amino)ethyl)phenyl)nicotinamide]
IC50 [1]: < 300 nM
IC50 [2]: < 300 nM

CCn1cc2ncc(N[C@@H](C)c3cc(NC(=O)c4ccc(CN5CCOCC5)c(C(F)(F)F)c4)ccc3F)nc2n1 [Compound 428, (S)-N-(3-(1-((2-ethyl-2H-pyrazolo[3,4-b]pyrazin-6-yl)amino)ethyl)-4-fluorophenyl)-4-(morpholinomethyl)-3-(trifluoromethyl)benzamide]
IC50 [1]: < 300 nM
IC50 [2]: < 300 nM
